Tests used:
[1] = S9 stability assay, human liver S9 fraction; format: in vitro ADME
In short: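 Incubation at 37 °C of 1 μM compound with 2 mg/mL human liver S9 protein and 1 mM NADPH in 100 mM potassium phosphate pH 7.4 (1 mM EDTA, 3 mM MgCl2), sampled at 0, 15, 30, 60 min. Parent loss by LC/MS/MS gave t1/2 and CLint = 0.693/t1/2 × mL incubation/mg S9 protein.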

C57BL/6J mice = test: In vivo mouse model, skin and systemic toxicity of topical application (survival); details: for Survival Rates: twice daily 5 days per week, 10% BSA
From the text: This study was designed to assess the skin toxicity and gross systemic toxicity of twice daily topical administration of a compound disclosed herein, as well as to evaluate the effect of metabolic lability on systemic toxicity.
Study Objective: The primary objective of this study was to characterize the skin and systemic toxicity of twice daily topical application of a compound disclosed herein, applied for 25 days in mice. Secondary objectives included determination of the 25-day skin and plasma compound levels of formulations containing three dosages of compound of Ex. 2 after application to 10% body surface area (BSA) murine skin; assessment of gross systemic toxicity from the application of compound of Ex. 2 after twice daily application to 10% BSA murine skin for 25 days; and determination of the correlation of skin and plasma compound levels with associated toxicity.
Mice: 8 week old male C57BL/6J mice (Jackson Laboratories) were shaved prior to start of study and weekly.
Compound application: Compounds were dissolved in a 50% DMSO/50% propyelene glycol vehicle. 0.125 mL of the following compounds were applied to the shaved dorsal back of mice (10% BSA) twice daily for 5 days per week for a total of 24 days. The second dose was applied 8 hours after first morning dose. All mice were shaved once per week at application site.
Oral trametinib was dissolved in 0.5% hydroxypropyl methylcellulose (Sigma-Aldrich) and 0.2% Tween-80 (Sigma-Aldrich) and administered by oral gavage (0.2 mL bolus or 10 mg/kg) once daily 5 days per week. These mice were also shaved weekly.
Weekly (Weeks 0-4): body weight measurements weekly, starting week 0 until experiment end; photographs of dorsal back and face of each mouse weekly, starting week 0 until experiment end; skin; and gross stool analysis assessed weekly for heme color, starting week 0 until experiment end.
The study planned for the mice to be sacrificed at Day 25.
Kaplan Meier curves were analyzed to determine progression to skin toxicity for each arm as compared with vehicle. T-test were used to compare compound levels at each dosage. Ki-67+ cells and p-ERK expression were also assessed on a cellular level via immunostaining. Western blots informed semi-quantitative changes in p-ERK expression.

Cn1c(Nc2ccc(I)cc2F)c(C(=O)NOCCO)c2cccnc21 [Example 2, 2-((2-Fluoro-4-iodophenyl)amino)—N-(2-hydroxyethoxy)-1-methyl-1H-pyrrolo[2,3-b]pyridine-3-carboxamide]
All mice survived: survival (C57BL/6J mice; topically applied 0.1%, 0.5%, and 1% formulations, 25 days)
16 min: half-life at 1 μM ([1]; pH 7.4, Table 1, human liver S9 fraction, read-out: Liver S9 t1/2)
21.45 μL/min/mg protein: Assay 5: human liver S9 instrinsic clearance value ([1]; Table 2, 1 μM, 2 mg/mL S9 protein, NADPH)
100%: Survival Rates (C57BL/6J mice; topical 0.1%, Day 0) | Survival Rates (C57BL/6J mice; topical 0.1%, Day 3) | Survival Rates (C57BL/6J mice; topical 0.1%, Day 6) | Survival Rates (C57BL/6J mice; topical 0.1%, Day 9) | Survival Rates (C57BL/6J mice; topical 0.1%, Day 12) | Survival Rates (C57BL/6J mice; topical 0.1%, Day 15) | Survival Rates (C57BL/6J mice; topical 0.1%, Day 18) | Survival Rates (C57BL/6J mice; topical 0.1%, Day 21) | Survival Rates (C57BL/6J mice; topical 0.1%, Day 24) | Survival Rates (C57BL/6J mice; topical 0.1%, Day 25) | Survival Rates (C57BL/6J mice; topical 0.5%, Day 0) | Survival Rates (C57BL/6J mice; topical 0.5%, Day 3) | Survival Rates (C57BL/6J mice; topical 0.5%, Day 6) | Survival Rates (C57BL/6J mice; topical 0.5%, Day 9) | Survival Rates (C57BL/6J mice; topical 0.5%, Day 12) | Survival Rates (C57BL/6J mice; topical 0.5%, Day 15) | Survival Rates (C57BL/6J mice; topical 0.5%, Day 18) | Survival Rates (C57BL/6J mice; topical 0.5%, Day 21) | Survival Rates (C57BL/6J mice; topical 0.5%, Day 24) | Survival Rates (C57BL/6J mice; topical 0.5%, Day 25) | Survival Rates (C57BL/6J mice; topical 1%, Day 0) | Survival Rates (C57BL/6J mice; topical 1%, Day 3) | Survival Rates (C57BL/6J mice; topical 1%, Day 6) | Survival Rates (C57BL/6J mice; topical 1%, Day 9) | Survival Rates (C57BL/6J mice; topical 1%, Day 12) | Survival Rates (C57BL/6J mice; topical 1%, Day 15) | Survival Rates (C57BL/6J mice; topical 1%, Day 18) | Survival Rates (C57BL/6J mice; topical 1%, Day 21) | Survival Rates (C57BL/6J mice; topical 1%, Day 24) | Survival Rates (C57BL/6J mice; topical 1%, Day 25)
less systemic toxicity: systemic toxicity compared to topical Trametinib (C57BL/6J mice; topical application)
21.4 µL/min/mg: microsomal CLint at 1 μM ([1]; pH 7.4, Table 1, human liver S9 fraction, read-out: CLint)

Source: patent publication US11161845B2, “Pyrrolopyridine-aniline compounds for treatment of dermal disorders” (Nflection Therapeutics, Inc., priority 2017, dated 2021)
